The source of these data is patent US20170334899A1, “AMINO-SUBSTITUTED ISOTHIAZOLES” (Bayer Pharma Aktiengesellschaft, priority 2014, published 2017).

Like-named read-outs stand apart in the source and are kept apart here.

Experiment [1] deals with T1, catalytic domain of human Bub1 (amino acids 704-1085) (Homo sapiens, UniProt O43683).
T1 construct: catalytic domain of human Bub1 (amino acids 704-1085); His6 (N); made in house; host or cells: insect cells (Hi5)
Put plainly: Bub1 kinase assay (TR-FRET). It counts as biochemical. The conditions noted are these: 10 μM ATP, avg, read-out: Bub1 avg (IC50 [mol/l]). A digest of the protocol: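 Readout is the 665/620 nm TR-FRET ratio from anti-phosphoserine antibody, Eu-labelled anti-mouse IgG and streptavidin-XL665, scaled between no-enzyme and uninhibited controls. Reaction: 1 μM biotinylated peptide, 10 μM ATP, 60 min, 22 °C, after 15 min compound preincubation with His6-Bub1 (704-1085, insect-expressed, ~200 ng/ml).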

The test system of experiment [2] is human cervical tumor cell line HeLa (ATCC CCL-2). Put plainly: SAC-Formation - Paclitaxel-Induced Assay. Conditions: 24 h, HeLa cells, paclitaxel 0.05 μM, test range 0.005 μM-20 μM, read-out: IC50 [mol/l] SAC-Formation - Paclitaxel-Induced Assay. It counts as cell-based. Summed up: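 HeLa cells incubated overnight at 37° C, then given paclitaxel (0.05 μM final) plus test compound (0.005–20 μM, 0.5% DMSO) together for 24 h at 37° C. Fixed cells stained for phospho-histone H3 Ser10 (mitotic cells) and Hoechst 33342 (cell count); imaging-derived mitotic index fitted by four-parameter Hill equation.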

T1 sequence (O43683 704-1085): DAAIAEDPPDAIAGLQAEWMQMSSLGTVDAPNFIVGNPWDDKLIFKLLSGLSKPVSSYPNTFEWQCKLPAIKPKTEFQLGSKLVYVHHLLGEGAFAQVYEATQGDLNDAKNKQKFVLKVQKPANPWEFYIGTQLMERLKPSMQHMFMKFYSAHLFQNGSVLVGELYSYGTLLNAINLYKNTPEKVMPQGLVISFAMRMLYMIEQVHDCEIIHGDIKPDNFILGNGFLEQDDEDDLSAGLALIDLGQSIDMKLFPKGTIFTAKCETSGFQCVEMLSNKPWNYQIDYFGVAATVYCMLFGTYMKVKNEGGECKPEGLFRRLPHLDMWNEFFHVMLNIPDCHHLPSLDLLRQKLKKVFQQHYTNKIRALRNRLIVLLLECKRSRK

`CNS(=O)(=O)c1ccc(NC(=O)c2c(C)nsc2Nc2cnc3ccccc3n2)cc1` [Example 111, 3-Methyl-N-[4-(methylsulfannoyl)phenyl]-5-(quinoxalin-2-ylamino)-1,2-thiazole-4-carboxamide]: the IC50 was at least 20 µM in experiment [1] and 0.13 µM in experiment [2] (Homo sapiens, HeLa).
Consider `Cc1nsc(Nc2cnc(C(F)(F)F)cn2)c1C(=O)Nc1ccc(O[C@H]2CCN(CC(F)F)C[C@H]2F)nc1` [Example 144, N-(6-{[(3R,4S)-1-(2,2-difluoroethyl)-3-fluoropiperidin-4-yl]oxy}pyridin-3-yl)-3-methyl-5-{[5-(trifluoromethyl)pyrazin-2-yl]amino}-1,2-thiazole-4-carboxamide], for which the IC50 in experiment [1] is over 20 µM; in experiment [2] (Homo sapiens, HeLa), 0.094 µM.
In the same order, the values of `Cc1nsc(Nc2cncc(C(F)(F)F)n2)c1C(=O)Nc1ccc(C(=O)NC2CCN(CC(F)(F)F)CC2)cc1` [Example 167, 3-methyl-N-(4-{[1-(2,2,2-trifluoroethyl)piperidin-4-yl]carbamoyl}phenyl)-5-{[6-(trifluoromethyl)pyrazin-2-yl]amino}-1,2-thiazole-4-carboxamide] are over 20 µM and 0.34 µM.
Take `Cc1nsc(Nc2cnc(C(F)(F)F)cn2)c1C(=O)Nc1ccc(OC[C@@H]2CCN(CCC(F)(F)F)C2)nc1` [Example 129, 3-Methyl-5-{[5-(trifluoromethyl)pyrazin-2-yl]amino}-N-(6-{[(3R)-1-(3,3,3-trifluoropropyl)pyrrolidin-3-yl]methoxy}pyridin-3-yl)-1,2-thiazole-4-carboxamide]: the IC50 in experiment [1] was over 20 µM; in experiment [2] (Homo sapiens, HeLa), 0.084 µM.
As to `Cc1nsc(Nc2cnc3ccccc3n2)c1C(=O)Nc1ccc(C(=O)N2CCN(CC(F)F)CC2)cc1` [Example 157, N-(4-{[4-(2,2-difluoroethyl)piperazin-1-yl]carbonyl}phenyl)-3-methyl-5-(quinoxalin-2-ylamino)-1,2-thiazole-4-carboxamide], the IC50 in experiment [1] was over 20 µM; in experiment [2] (Homo sapiens, HeLa), 0.9 µM.
Taken in the same sequence, the figures for `Cc1nsc(Nc2cnc3ccccc3n2)c1C(=O)Nc1cccc(C(=O)N2CCCC2)c1` [Example 113, 3-Methyl-N-[3-(pyrrolidin-1-ylcarbonyl)phenyl]-5-(quinoxalin-2-ylamino)-1,2-thiazole-4-carboxamide] were 18 µM and 1.7 µM.
As for `Cc1nsc(Nc2cnc3ccccc3n2)c1C(=O)Nc1ccc(N2CCOCC2)nc1` [Example 169, 3-methyl-N-[6-(morpholin-4-yl)pyridin-3-yl]-5-(quinoxalin-2-ylamino)-1,2-thiazole-4-carboxamide], the IC50 in experiment [1] is over 20 µM; in experiment [2] (Homo sapiens, HeLa), 14 µM.
As to `Cc1nsc(Nc2cnc(C(F)(F)F)cn2)c1C(=O)Nc1ccc(O[C@@H]2CCN(CCC(F)(F)F)C2)nc1` [Example 423, 3-Methyl-5-{[5-(trifluoromethyl)pyrazin-2-yl]amino}-N-(6-{[(3R)-1-(3,3,3-trifluoropropyl)pyrrolidin-3-yl]oxy}pyridin-3-yl)-1,2-thiazole-4-carboxamide], the IC50 in experiment [1] is at least 20 µM; in experiment [2], 0.14 µM.
As to `Cc1nsc(Nc2cnc3ccccc3n2)c1C(=O)Nc1cccc(C(=O)N[C@H](C(=O)O)[C@@H](C)O)c1` [Example 105, N-[3-({[3-methyl-5-(quinoxalin-2-ylamino)-1,2-thiazol-4-yl]carbonyl}amino)-benzoyl]threonine], the IC50 in experiment [1] came out at 19 µM; in experiment [2] (Homo sapiens, HeLa), 20 µM.
With `Cc1nsc(Nc2cnc(C(F)(F)F)cn2)c1C(=O)Nc1ccc(OC2CCN(C(C)C)CC2)nc1` [Example 160, N-{6-[(1-isopropylpiperidin-4-yl)oxy]pyridin-3-yl}-3-methyl-5-{[5-(trifluoromethyl)pyrazin-2-yl]amino}-1,2-thiazole-4-carboxamide], the IC50 in experiment [1] was over 20 µM; in experiment [2] (Homo sapiens, HeLa) it was 3.6 µM.
Turning to `COC(=O)CNC(=O)c1cccc(NC(=O)c2c(C)nsc2Nc2cnc3ccccc3n2)c1` [Example 100, Methyl N-[3-({[3-methyl-5-(quinoxalin-2-ylamino)-1,2-thiazol-4-yl]carbonyl}amino)-benzoyl]glycinate], the IC50 in experiment [1] came out at 9 µM; in experiment [2] (Homo sapiens, HeLa), 20 µM.
Consider `Cc1nsc(Nc2cnc(C(F)(F)F)cn2)c1C(=O)Nc1ccc(OC2CCN(CCF)CC2)c(F)c1` [Example 162, N-(3-fluoro-4-{[1-(2-fluoroethyl)piperidin-4-yl]oxy}phenyl)-3-methyl-5-{[5-(trifluoromethyl)pyrazin-2-yl]amino}-1,2-thiazole-4-carboxamide], for which the IC50 in experiment [1] is over 20 µM; in experiment [2] (Homo sapiens, HeLa), 0.12 µM.
Taken in the same sequence, the figures for `Cc1nsc(Nc2ccc(C#N)cn2)c1C(=O)Nc1ccc(Oc2cccc(C(F)(F)F)c2)nc1` [Example 118, 5-[(5-Cyanopyridin-2-yl)amino]-3-methyl-N-{6-[3-(trifluoromethyl)phenoxy]pyridin-3-yl}-1,2-thiazole-4-carboxamide] were at least 20 µM and 0.053 µM.
Regarding `Cc1nsc(Nc2cnc(C(F)(F)F)cn2)c1C(=O)Nc1ccc(C(=O)NC2CCN(CC(F)(F)F)CC2)cc1` [Example 165, 3-methyl-N-(4-{[1-(2,2,2-trifluoroethyl)piperidin-4-yl]carbamoyl}phenyl)-5-{[5-(trifluoromethyl)pyrazin-2-yl]amino}-1,2-thiazole-4-carboxamide], the IC50 in experiment [1] is over 20 µM; in experiment [2] (Homo sapiens, HeLa), 0.59 µM.
As for `Cc1nsc(Nc2cnc(C(F)(F)F)cn2)c1C(=O)Nc1ccc(OC2CCN(CC(F)(F)F)CC2)c(F)c1` [Example 163, N-(3-fluoro-4-{[1-(2,2,2-trifluoroethyl)piperidin-4-yl]oxy}phenyl)-3-methyl-5-{[5-(trifluoromethyl)pyrazin-2-yl]amino}-1,2-thiazole-4-carboxamide], the IC50 was over 20 µM in experiment [1] and 0.039 µM in experiment [2] (Homo sapiens, HeLa).
On to `Cc1nsc(Nc2cnc(C(F)(F)F)cn2)c1C(=O)Nc1ccc(O[C@@H]2CCN(CC(F)(F)F)C2)nc1` [Example 421, 3-Methyl-N-(6-{[(3R)-1-(2,2,2-trifluoroethyl)pyrrolidin-3-yl]oxy}pyridin-3-yl)-5-{[5-(trifluoromethyl)pyrazin-2-yl]amino}-1,2-thiazole-4-carboxamide], for which the IC50 in experiment [1] was at least 20 µM; in experiment [2] it was 0.33 µM.
With `Cc1nsc(Nc2cnc3ccccc3n2)c1C(=O)Nc1cccc(-c2nc(C(C)(C)C)no2)c1` [Example 108, N-[3-(3-tert-Butyl-1,2,4-oxadiazol-5-yl)phenyl]-3-methyl-5-(quinoxalin-2-ylamino)-1,2-thiazole-4-carboxamide], the IC50 is at least 20 µM in experiment [1] and 0.053 µM in experiment [2] (Homo sapiens, HeLa).
Take `Cc1nsc(Nc2cnc(C(F)(F)F)cn2)c1C(=O)Nc1ccc(OCC2CCN(CC(F)(F)F)C2)nc1` (centres unmarked) [Example 123, 3-Methyl-N-(6-{[1-(2,2,2-trifluoroethyl)pyrrolidin-3-yl]methoxy}pyridin-3-yl)-5-{[5-(trifluoromethyl)pyrazin-2-yl]amino}-1,2-thiazole-4-carboxamide]: the IC50 in experiment [1] was at least 20 µM; in experiment [2] (Homo sapiens, HeLa), 0.024 µM.
As to `Cc1nsc(Nc2cnc(C(F)(F)F)cn2)c1C(=O)Nc1ccc(F)c(C(N)=O)c1` [Example 151, N-(3-carbamoyl-4-fluorophenyl)-3-methyl-5-{[5-(trifluoromethyl)pyrazin-2-yl]amino}-1,2-thiazole-4-carboxamide], the IC50 in experiment [1] amounted to 4.3 µM; in experiment [2] (Homo sapiens, HeLa), 1.3 µM.
